Experimental data taken from patent publication US20250313533A1, “QUINOLINE CARBOXYLIC ACID ESTER COMPOUND AND PREPARATION METHOD AND USE THEREOF” (priority 2019, published 2025).

Legend:
[1] = test system: pathogenic bacteria causing black rot in Chinese cabbages; assay: In vitro bactericidal activity, black rot in Chinese cabbages; type: cell-based, xanthomonas; details: Xanthomonas, read-out: inhibitory rate; for inhibition at 1 ppm: dosage 1 ppm; for inhibition at 5 ppm: dosage 5 ppm
black shank in potatoes = assay: Living crops in vivo protective activity, potatoes (root irrigation); details: Solanum tuberosum, read-out: efficacy against black shank in potatoes; for pest or weed control at 5 ppm: dosage 5 ppm; for pest or weed control at 10 ppm: dosage 10 ppm
Method: Root irrigation was carried out on the potatoes for tests according to the designed concentration of the agents. The dosage for each plant was 200 mL and was kept consistent (also for the control). The black shank bacteria were inoculated on the second day after the application. The results were investigated according to the disease condition.

[2] = test system: pathogenic bacteria causing bacterial wilt in cassava; assay: organism not typed; type: cell-based; details: read-out: inhibitory rate
[3] = test system: pathogenic bacteria causing bacterial wilt in tobacco; assay: whole plant or invertebrate; type: cell-based, ralstonia; details: read-out: inhibitory rate
[4] = test system: pathogenic bacteria causing fruit blotch in watermelons; assay: In vitro bactericidal activity, fruit blotch in watermelons; type: cell-based, acidovorax; details: read-out: inhibitory rate; for inhibition at 1 ppm: dosage 1 ppm; for inhibition at 5 ppm: dosage 5 ppm
[5] = test system: pathogenic bacteria causing fire blight in pears; assay: In vitro bactericidal activity, fire blight in pears; type: cell-based, erwinia; details: Erwinia, read-out: inhibitory rate; for inhibition at 1 ppm: dosage 1 ppm; for inhibition at 5 ppm: dosage 5 ppm
[6] = test system: fruit blotch in watermelons; assay: whole plant or invertebrate; details: read-out: efficacy against fruit blotch in watermelons
[7] = test system: indoor potted cucumber seedlings; assay: Effect of improving growth and development of crops; type: in vivo; parameters: Rate of growth rate increase (%): concentration or dose not given beside the values; details: versus blank control; for Rate of chlorophyll content increase (%) / Rate of leaf area increase (%): 14 days after application; for Rate of growth rate increase (%): plant height 14 days after application; for Rate of leaf area increase (%): second leaf
Procedure, shortened: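 SPAD chlorophyll, plant height and second-leaf dimensions measured at application and 14 d later; leaf area from length (base to tip) and width (upper shoulder).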

[8] = test system: pathogenic bacteria causing bacterial angular leaf spot in cucumbers; assay: In vitro bactericidal activity, bacterial angular leaf spot in cucumbers; type: cell-based, pseudomonas; details: read-out: inhibitory rate; for inhibition at 1 ppm: dosage 1 ppm; for inhibition at 5 ppm: dosage 5 ppm
[9] = test system: stem rot in sweet potatoes; assay: whole plant or invertebrate; details: read-out: efficacy against stem rot in sweet potatoes
[10] = test system: pathogenic bacteria causing black shank in potatoes; assay: In vitro bactericidal activity, black shank in potatoes; type: cell-based; details: read-out: inhibitory rate; for inhibition at 1 ppm: dosage 1 ppm; for inhibition at 5 ppm: dosage 5 ppm
[11] = test system: pathogenic bacteria causing stem rot in sweet potatoes; assay: In vitro bactericidal activity, stem rot in sweet potatoes; type: cell-based, dikia; details: read-out: inhibitory rate; for inhibition at 1 ppm: dosage 1 ppm; for inhibition at 5 ppm: dosage 5 ppm
[12] = test system: pathogenic bacteria causing bacterial blight in rice; assay: whole plant or invertebrate; type: cell-based, xanthomonas; details: read-out: inhibitory rate
[13] = test system: soft rot in Chinese cabbages; assay: whole plant or invertebrate; details: 48 h, read-out: efficacy against soft rot in Chinese cabbages
bacterial blight in rice = assay: whole plant or invertebrate; details: Oryza sativa, read-out: efficacy against bacterial blight in rice
[14] = test system: bacterial wilt in tobacco; assay: whole plant or invertebrate; details: Nicotiana tabacum, read-out: efficacy against bacterial wilt in tobacco
cucumber seedlings = assay: Safety for plant growth after application; type: in vivo; details: dosage 200 ppm
Procedure, shortened: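 Compound applied to indoor cucumber seedlings in pots. Growth then scored: height increase rate, leaf chlorophyll, leaf area.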

Structure (SMILES)	inhibition at 1 ppm [1] [%]	inhibition at 5 ppm [1] [%]	pest or weed control at 5 ppm (black shank in potatoes) [%]	pest or weed control at 10 ppm (black shank in potatoes) [%]	inhibition at 1 ppm [2] [%]	inhibition at 5 ppm [2] [%]	inhibition at 1 ppm [3] [%]	inhibition at 5 ppm [3] [%]	inhibition at 1 ppm [4] [%]	inhibition at 5 ppm [4] [%]	inhibition at 1 ppm [5] [%]	inhibition at 5 ppm [5] [%]	pest or weed control at 5 ppm [6] [%]	pest or weed control at 10 ppm [6] [%]	Rate of chlorophyll content increase (%) [7] [%]	Rate of growth rate increase (%) [7] [%]	Rate of leaf area increase (%) [7] [%]	inhibition at 1 ppm [8] [%]	inhibition at 5 ppm [8] [%]	pest or weed control at 5 ppm [9] [%]	other results
CCNc1cc2c(cc1F)c(=O)c(C(=O)OCCOC)cn2C1CC1 [Compound 408]	≥ 90	≥ 90	≥ 90	≥ 90	≥ 90	≥ 90	≥ 90	≥ 90	≥ 90	≥ 90	≥ 90	≥ 90	≥ 90	≥ 90	18	12	12	≥ 90	≥ 90	≥ 90	pest or weed control at 10 ppm [9]: ≥ 90%; inhibition at 1 ppm [10]: ≥ 90%; inhibition at 5 ppm [10]: ≥ 90%; inhibition at 1 ppm [11]: ≥ 90%; inhibition at 5 ppm [11]: ≥ 90%; inhibition at 1 ppm [12]: ≥ 90%; inhibition at 5 ppm [12]: ≥ 90%; pest or weed control at 5 ppm [13]: ≥ 90%; pest or weed control at 10 ppm [13]: ≥ 90%; pest or weed control at 5 ppm (bacterial blight in rice): ≥ 90%; pest or weed control at 10 ppm (bacterial blight in rice): ≥ 90%; pest or weed control at 5 ppm [14]: ≥ 90%; pest or weed control at 10 ppm [14]: ≥ 90%; safety for plant growth (discoloration, necrosis, wilt, malformation) (cucumber seedlings): safe for plant growth
COCCOC(=O)c1cn(C2CC2)c2cc(OCC(F)(F)F)c(F)cc2c1=O [Compound 292, 2-methoxyethyl 1-cyclopropyl-6-fluoro-4-oxo-7-(2,2,2-trifluoroethoxy)-1,4-dihydroquinoline-3-carboxylate]	≥ 90	≥ 90	≥ 90	≥ 90	≥ 90	≥ 90	≥ 90	≥ 90	≥ 90	≥ 90	≥ 90	≥ 90	≥ 90	≥ 90	16	15	15	≥ 90	≥ 90	≥ 90	pest or weed control at 10 ppm [9]: ≥ 90%; inhibition at 1 ppm [10]: ≥ 90%; inhibition at 5 ppm [10]: ≥ 90%; inhibition at 1 ppm [11]: ≥ 90%; inhibition at 5 ppm [11]: ≥ 90%; inhibition at 1 ppm [12]: ≥ 90%; inhibition at 5 ppm [12]: ≥ 90%; pest or weed control at 5 ppm [13]: ≥ 90%; pest or weed control at 10 ppm [13]: ≥ 90%; pest or weed control at 5 ppm (bacterial blight in rice): ≥ 90%; pest or weed control at 10 ppm (bacterial blight in rice): ≥ 90%; pest or weed control at 5 ppm [14]: ≥ 90%; pest or weed control at 10 ppm [14]: ≥ 90%; safety for plant growth (discoloration, necrosis, wilt, malformation) (cucumber seedlings): safe for plant growth
COCCOC(=O)c1cn(C2CC2)c2cc(N3CCCCC3)c(F)cc2c1=O [Compound 432]	≥ 90	≥ 90	≥ 90	≥ 90	≥ 90	≥ 90	≥ 90	≥ 90	≥ 90	≥ 90	≥ 90	≥ 90	≥ 90	≥ 90	16	12	16	≥ 90	≥ 90	≥ 90	pest or weed control at 10 ppm [9]: ≥ 90%; inhibition at 1 ppm [10]: ≥ 90%; inhibition at 5 ppm [10]: ≥ 90%; inhibition at 1 ppm [11]: ≥ 90%; inhibition at 5 ppm [11]: ≥ 90%; inhibition at 1 ppm [12]: ≥ 90%; inhibition at 5 ppm [12]: ≥ 90%; pest or weed control at 5 ppm [13]: ≥ 90%; pest or weed control at 10 ppm [13]: ≥ 90%; pest or weed control at 5 ppm (bacterial blight in rice): ≥ 90%; pest or weed control at 10 ppm (bacterial blight in rice): ≥ 90%; pest or weed control at 5 ppm [14]: ≥ 90%; pest or weed control at 10 ppm [14]: ≥ 90%; safety for plant growth (discoloration, necrosis, wilt, malformation) (cucumber seedlings): safe for plant growth
CCNc1cc2c(cc1F)c(=O)c(C(=O)OCCO)cn2C1CC1 [Compound 407]	≥ 90	≥ 90	≥ 90	≥ 90	≥ 90	≥ 90	≥ 90	≥ 90	≥ 90	≥ 90	≥ 90	≥ 90	≥ 90	≥ 90	15	13	11	≥ 90	≥ 90	≥ 90	pest or weed control at 10 ppm [9]: ≥ 90%; inhibition at 1 ppm [10]: ≥ 90%; inhibition at 5 ppm [10]: ≥ 90%; inhibition at 1 ppm [11]: ≥ 90%; inhibition at 5 ppm [11]: ≥ 90%; inhibition at 1 ppm [12]: ≥ 90%; inhibition at 5 ppm [12]: ≥ 90%; pest or weed control at 5 ppm [13]: ≥ 90%; pest or weed control at 10 ppm [13]: ≥ 90%; pest or weed control at 5 ppm (bacterial blight in rice): ≥ 90%; pest or weed control at 10 ppm (bacterial blight in rice): ≥ 90%; pest or weed control at 5 ppm [14]: ≥ 90%; pest or weed control at 10 ppm [14]: ≥ 90%; safety for plant growth (discoloration, necrosis, wilt, malformation) (cucumber seedlings): safe for plant growth
CCOc1cc2c(cc1F)c(=O)c(C(=O)OCCO)cn2C1CC1 [Compound 265]	≥ 90	≥ 90	≥ 90	≥ 90	≥ 90	≥ 90	≥ 90	≥ 90	≥ 90	≥ 90	≥ 90	≥ 90	≥ 90	≥ 90	13	12	15	≥ 90	≥ 90	≥ 90	pest or weed control at 10 ppm [9]: ≥ 90%; inhibition at 1 ppm [10]: ≥ 90%; inhibition at 5 ppm [10]: ≥ 90%; inhibition at 1 ppm [11]: ≥ 90%; inhibition at 5 ppm [11]: ≥ 90%; inhibition at 1 ppm [12]: ≥ 90%; inhibition at 5 ppm [12]: ≥ 90%; pest or weed control at 5 ppm [13]: ≥ 90%; pest or weed control at 10 ppm [13]: ≥ 90%; pest or weed control at 5 ppm (bacterial blight in rice): ≥ 90%; pest or weed control at 10 ppm (bacterial blight in rice): ≥ 90%; pest or weed control at 5 ppm [14]: ≥ 90%; pest or weed control at 10 ppm [14]: ≥ 90%; safety for plant growth (discoloration, necrosis, wilt, malformation) (cucumber seedlings): safe for plant growth
COc1cc2c(cc1F)c(=O)c(C(=O)OCCCO)cn2C1CC1 [Compound 320]	≥ 90	≥ 90	≥ 90	≥ 90	≥ 90	≥ 90	≥ 90	≥ 90	≥ 90	≥ 90	≥ 90	≥ 90	≥ 90	≥ 90	16	14	9	≥ 90	≥ 90	≥ 90	pest or weed control at 10 ppm [9]: ≥ 90%; inhibition at 1 ppm [10]: ≥ 90%; inhibition at 5 ppm [10]: ≥ 90%; inhibition at 1 ppm [11]: ≥ 90%; inhibition at 5 ppm [11]: ≥ 90%; inhibition at 1 ppm [12]: ≥ 90%; inhibition at 5 ppm [12]: ≥ 90%; pest or weed control at 5 ppm [13]: ≥ 90%; pest or weed control at 10 ppm [13]: ≥ 90%; pest or weed control at 5 ppm (bacterial blight in rice): ≥ 90%; pest or weed control at 10 ppm (bacterial blight in rice): ≥ 90%; pest or weed control at 5 ppm [14]: ≥ 90%; pest or weed control at 10 ppm [14]: ≥ 90%; safety for plant growth (discoloration, necrosis, wilt, malformation) (cucumber seedlings): safe for plant growth
